Legend:
[1] = test system: Swiss-Webster female mice; experiment: TPA/pyr induced acute dermal ear inflammation (Part B); assay type: in vivo, mouse
Description: Effects of Di-rhamnolipid W3CTS on TPA/pyr induced acute inflammation in the ears of Swiss-Webster female mice.
The aim of this study was two-fold. In Part A the potential of a single topical application of W3CTS to cause acute cutaneous irritation (up to 24 hours) was measured in a mouse ear assay system. […] The aim of Part B was to determine the effects of a single topical administration of W3CTS on acute dermal inflammation induced by TPA/pyr, Part B was designed to differentiate the ability of Di-rhamnolipid W3CTS at concentration 1 mg/ml to prevent, inhibit or reverse induced ear inflammation.
The time of maximal reduction of inflammation was dependent on the time of treatment, with respect to induction. The effect of Di-rhamnolipid W3CTS was moderate (up to 32% decrease in inflammation) but sustained. […] Post treatment reversed established inflammation by 32% at 11 hours. […] It may be possible to increase the anti-inflammatory effect of Di-rhamnolipid W3CTS by use of a different dose formulation, or by repeated treatments.

C. albicans = experiment: Immunorestoration activity: cyclophosphamide immunosuppression and C. albicans challenge; assay type: in vivo, mouse; conditions: 100 mg/kg i/p days 1, 3, 5, cyclophosphamide 30 mg/kg p/o days 2, 4, 6
Description: Di-rhamnolipid W3CTS was administered i/p. (100 mg/kg) to groups of ICR derived male mice weighing 22±2 g on days 1, 3, and 5, with the immunosuppressant cyclophosphamide (30 mg/kg p/o.) administered on days 2, 4, and 6. One day after the last immunosuppressant dose, the mice were challenged with a suspension of C. Albicans sufficient to result in 90-100% mortality within 10 days in vehicle treated animals. Survival of 30 percent or more (≧30) of the animals was considered significant and indicated possible immunorestoration activity. Reference agent was lipopolysaccharide 0.3 mg/kg i/p.

[2] = biological target: dopamine D1 (human recombinant) (Homo sapiens, UniProt P21728); experiment: Dopamine D1 receptor binding of [3H]SCH23390; conditions: 100 μM in 0.5% DMSO
Chain of dopamine D1 (human recombinant) (P21728 whole entry): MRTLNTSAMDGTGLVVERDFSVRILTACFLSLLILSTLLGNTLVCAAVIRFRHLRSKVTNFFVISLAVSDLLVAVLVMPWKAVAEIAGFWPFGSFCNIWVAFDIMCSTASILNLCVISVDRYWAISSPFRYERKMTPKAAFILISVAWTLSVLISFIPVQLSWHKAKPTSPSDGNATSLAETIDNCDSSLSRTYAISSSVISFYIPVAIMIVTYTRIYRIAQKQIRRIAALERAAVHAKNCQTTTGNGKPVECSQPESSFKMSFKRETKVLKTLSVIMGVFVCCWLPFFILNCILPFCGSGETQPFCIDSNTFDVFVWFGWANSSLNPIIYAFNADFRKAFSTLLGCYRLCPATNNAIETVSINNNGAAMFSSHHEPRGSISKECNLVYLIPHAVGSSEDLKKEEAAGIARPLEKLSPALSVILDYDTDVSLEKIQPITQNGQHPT
Description: At the concentration of 100 μM Di-rhamnolipid W3CTS in 0.5% DMSO, Di-rhamnolipid W3CTS inhibited 100% dopamine D1 (human recombinant) binding of [^3H] SCH23390. At the same concentration of 100 μM W3CTS in 0.5 DMSO measuring binding of [^3H]Spiperone to human dopamine D2L (human recombinant) was inhibited by 53%.

nude guinea pigs = experiment: DNCB induced delayed type hypersensitivity in nude guinea pigs; assay type: in vivo, guinea pig
Description: The nude guinea pig is used as a test animal because of different animal skins; nude guinea pig skin is claimed to be the one closest resembling human skin.
In DNCB sensitized guinea pigs delayed type hypersensitivity reactions were induced with patches soaked with 0.25% (w/v) DNCB in ethanol/propylene glycol kept on the animals back for 24 hours. The test sites were treated twice daily during 7 days with: Dovonex ointment ([…]), 1% Di-rhamnolipid W3CTS in Vaseline, vehicle and untreated area. […] Dovonex has been improved by time.

[3] = test system: neonatal human keratinocytes; experiment: Colony forming efficiency of neonatal human keratinocytes; assay type: cell-based; conditions: GM medium with 10% fetal bovine serum
Description: Colony forming efficiency of neonatal human keratinocytes treated with Di-rhamnolipid W3CTS.
The stimulation was most significant at 100 μg/ml and 50 μg/ml the colony forming ability was increased by 34% at 50 μg/ml of Di-rhamnolipid W3CTS. The results are consistent with the effects of Di-rhamnolipid W3CTS on the neonatal human keratinocyte viability in GM with 10% fetal bovine serum.

[4] = test system: female Swiss-Webster mice; experiment: Induction and challenge phases of DTH in the mouse ear; assay type: in vivo
From the text: Effects of Di-Rhamnolipid W3CTS on the Induction and Challenge Phases of DTH in Female Swiss-Webster Mice.
The aims of this study were first, to evaluate the in-vivo effects of Di-rhamnolipid W3CTS on aspects of a T-cell mediated immune response in mice and second, to determine if Di-rhamnolipid W3CTS was a sensitizing agent. This formed one of a series of studies to evaluate the toxicity and functionality of Di-rhamnolipid W3CTS.
The model used was induced delayed-type hypersensitivity (DTH) response in the mouse ear. In general, the DTH model involves administering a sensitizing agent mixed with an adjuvant, one or more occasions to prime the immune system. One to two weeks after the final induction and boost(s), animals are re-exposed to the sensitizing antigen, with a small volume injected intradermally in the ear, to elicit a secondary response (challenge). The ear swells during the secondary T-cell mediated response, and thus the change in ear thickness from prestimulation can be quantified. The present study had several sub-components testing different components of the immune response.
Parts A & B followed the standard procedure, in which the treatment test article, Di-rhamnolipid W3CTS, was administered topically concurrent to the challenge with sensitizing agent. Additionally, the effects of Di-rhamnolipid W3CTS on development of the primary immune response were also tested (Parts C&D). Therefore it was possible to obtain preliminary information about potential activity of Di-rhamnolipid W3CTS on more than one arm of the immune system. In parts B, C, and D, the protein ovalbumin, in CFA (Complete Freund's Adjuvant) or IFA (Incomplete Freund's Adjuvant) was used as the sensitizing agent as it is a standard with well-characterized, quantifiable activity in DTH. An additional compound, DNCB (1-chloro-2,4-di-nitro benzene) with gamma interferon (IFN-gamma), was also used (Group A) in order to maximize the opportunity to characterize the activity of Di-rhamnolipid W3CTS on T-cell mediated immunity. […]

[5] = test system: neonatal human fibroblasts; experiment: Neonatal human fibroblast cell culture (proliferation, viability, apoptosis); assay type: cell-based
Description: (§1) At the same concentration of 100 μg/ml W3CTS increased apoptosis by 72%.

[6] = as above; assay type: cell-based; conditions: human, neonatal human fibroblasts; 100 μg/ml; presence of serum; read-out: inhibition of viability of fibroblasts
Description: as §1

[7] = Micronucleus test in-vivo

CCCCCCCC(CC(=O)O)OC(=O)CC(CCCCCCC)OC1OC(C)C(O)C(O)C1OC1OC(C)C(O)C(O)C1O (stereo not shown) [Di-rhamnolipid W3CTS]
decrease in inflammation (overall) ([1]; 1 mg/ml topical, maximal effect): up to 32%
topical anti-inflammatory efficacy ([1]; 1 mg/ml, 1.0% w/v, single topical administration, 24 hours time-course): effective as a topical therapeutic anti-inflammatory agent
inhibition of inflammation, concurrent treatment ([1]; at 6 hours): about 32%
reversal of established inflammation, post treatment ([1]; at 11 hours, given 2 hours after induction): 32%
protective effect, pretreatment ([1]; given one hour prior to induced inflammation): short duration as a protective agent
immunorestoration activity (survival of 30 percent or more considered significant) (C. albicans): possible very significant immunorestoration activity
inhibition at 100 µM [2]: 100%
anti-inflammatory effect in the model (nude guinea pigs; 1% in Vaseline, preliminary data): very strong anti-inflammatory effect
state of test areas by day 7 (nude guinea pigs; treated twice daily during 7 days, W3CTS 1% in Vaseline): healed
colony forming ability increase ([3]; 50 μg/ml): 34%
growth of keratinocyte colonies ([3]; 100, 50, 10 and 1 μg/ml): stimulated the growth of keratinocyte colonies
effect on subsequent DTH response (Part C) ([4]; concurrently administered at induction with ovalbumin/IFA): inhibit the subsequent DTH response
effect on primary immune response (Part D) ([4]; given at induction): did not show potential to enhance a primary immune response
effect on secondary immune response, DTH (Part B) ([4]; topical at challenge, ovalbumin/CFA): sustained or increased DTH response
increase of apoptosis of fibroblasts ([5]; 100 μg/ml, presence of serum): 72%
cell proliferation and viability, fibroblasts ([5]; 200 μg/ml and 500 μg/ml, causing necrosis): fully inhibited cell proliferation and viability
inhibition at 100 µg/mL ([5]; Homo sapiens, Fibroblast, 100 μg/ml, presence of serum): 46%
cytotoxicity at 100 μg/ml [6]: 28%
micronucleus test [7]: negative

Source: US20110123623A1, “RHAMNOLIPID MECHANISM” (priority 2009, published 2011)
